Among the data in BindingDB's records for doi:10.1021/jm00021a021 (Tsukuba Research Institute, 1995) are IC50 values, retold here.

One may read the IC50 as the concentration that inhibits the measured activity by half. Read a high IC50 as a need for much substance.

This assay has as its target T1, Endothelin-1 receptor (Sus scrofa, UniProt Q29010).
T1 sequence (Q29010 whole entry): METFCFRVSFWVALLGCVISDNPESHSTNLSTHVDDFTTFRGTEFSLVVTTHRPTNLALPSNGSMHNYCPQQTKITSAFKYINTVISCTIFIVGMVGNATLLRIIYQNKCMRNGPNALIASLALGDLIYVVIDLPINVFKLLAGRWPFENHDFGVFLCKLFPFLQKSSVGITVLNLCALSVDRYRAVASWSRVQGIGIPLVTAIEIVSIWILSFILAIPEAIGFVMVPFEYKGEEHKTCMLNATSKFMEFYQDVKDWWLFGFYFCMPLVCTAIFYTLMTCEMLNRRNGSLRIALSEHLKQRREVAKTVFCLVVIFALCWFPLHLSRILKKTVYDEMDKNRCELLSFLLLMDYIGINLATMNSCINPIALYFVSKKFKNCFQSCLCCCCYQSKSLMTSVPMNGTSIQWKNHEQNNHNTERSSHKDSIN
The assay is described as follows: The compound was tested for binding inhibitory activity against Endothelin A receptor from porcine aortic smooth muscle membranes.

As to `CC(C)C[C@@H]1NC(=O)[C@@H](CC(C)C)NC(=O)[C@H](C)NC(=O)[C@@H](CC(=O)O)NC(=O)[C@@H](Cc2c[nH]c3ccccc23)NC1=O`, the IC50 is 440 nM.
